Structures can show the parent of a compound that is named as a salt. Where two headings read alike, the source gives them in different places.
Key:
[1] = biological target: AII receptor; assay: Angiotensin II receptor binding (displacement of 3H-AII); settings: read-out: Angiotensin II Receptor Binding IC50, rat adrenal cortical microsomes, 2 nM 3H-AII, 1 hour, room temperature
Method in brief: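 The receptor source was rat adrenal cortical microsomes in Tris buffer, incubated with 2 nM ³H-AII plus or minus test compound for 1 h at room temperature. Bound and free ligand were separated by rapid filtration on glass-fibre filters. Filter-bound ³H-AII was counted by scintillation.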

[2] = system: Renal Hypertensive Rats; assay: Antihypertensive effects in renal hypertensive rats; format: in vivo; settings: Rattus norvegicus; for minimal effective dose at 10 mg/kg / minimal effective dose at 100 mg/kg: Table 25; for minimal effective dose at 10 mg/kg / minimal effective dose at 3 mg/kg: intravenous; for minimal effective dose at 10 mg/kg: 10 mg/kg or less; for minimal effective dose at 100 mg/kg / minimal effective dose at 30 mg/kg: oral; for minimal effective dose at 100 mg/kg: 100 mg/kg or less; for minimal effective dose at 3 mg/kg / minimal effective dose at 30 mg/kg: Table 26
Method in brief: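 Renal hypertensive rats (renin-driven AII elevation) dosed orally at 100 mg/kg and/or i.v. via jugular cannula at 10 mg/kg; a second set used 30 mg/kg oral and 3 mg/kg i.v. Arterial pressure recorded continuously via carotid cannula and compared with pretreatment levels.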

[3] = Table 25, tested as sodium salt

CCCCc1nc(Cl)c(Cc2nnn[nH]2)n1Cc1ccc(C(=O)c2ccccc2C(=O)O)cc1 [Example 208, 2-Butyl-1-[4-(2-carboxybenzoyl)benzyl]-4-chloro-5-[(1H-tetrazol-5-yl)methyl]imidazole]
IC50 [1, 3]: 330 nM
minimal effective dose at 10 mg/kg ([2]; tested as sodium salt): < 10 mg/kg
minimal effective dose at 100 mg/kg ([2]; tested as sodium salt): > 100 mg/kg

CCCCc1nc(Cl)c(CNS(C)(=O)=O)n1Cc1ccc(C(=O)c2ccccc2C(=O)O)cc1 [Example 215]
IC50 [1, 3]: 200 nM
minimal effective dose at 10 mg/kg ([2]; tested as sodium salt): < 10 mg/kg
minimal effective dose at 100 mg/kg ([2]; tested as sodium salt): > 100 mg/kg

CCCCc1nc(Cl)c(/C=C/CO)n1Cc1ccc(NC(=O)c2ccccc2C(=O)O)cc1 [Example 227, 3-[1-(4-(2-Carboxybenzamido)-benzyl)-2-butyl-4-chloroimidazol-5-yl]-propen-1-ol, E isomer]
IC50 ([1]; Table 25): 110 nM
minimal effective dose at 10 mg/kg [2]: < 10 mg/kg

CCCCc1nc(Cl)c(/C=C/C(C)O)n1Cc1ccc(-c2ccccc2C(=O)OC)cc1 (stereo not drawn) [Example 229, 4-[1-(2'-Carbomethoxybiphenyl-4-yl)methyl-2-butyl-4-chloroimidazol-5-yl]-3-buten-2-ol, E isomer]
IC50 ([1]; Table 25): 2100 nM
minimal effective dose at 10 mg/kg [2]: < 10 mg/kg
minimal effective dose at 100 mg/kg [2]: < 100 mg/kg

CCCCc1nc(Cl)c(/C=C/c2ccccc2)n1Cc1ccc(NC(=O)c2ccccc2C(=O)O)cc1 [Example 230, 1-[4-(2-Carboxybenzamido)-benzyl]-2-butyl-4-chloro-5-(2-phenylethen-1-yl)imidazole, E isomer]
IC50 ([1]; Table 25): 1600 nM
minimal effective dose at 10 mg/kg [2]: < 10 mg/kg

CCCCc1nc(Cl)c(/C=C/COC(C)=O)n1Cc1ccc(NC(=O)c2ccccc2NS(=O)(=O)C(F)(F)F)cc1 [Example 232, 3-[1-(4-((N-Trifluoromethanesulfonyl)-anthranilamido)benzyl)-2-butyl-4-chloroimidazol-5-yl]-3-propen-1-ol acetate, E isomer]
IC50 ([1]; Table 25): 510 nM
minimal effective dose at 10 mg/kg [2]: < 10 mg/kg

CCCCc1nc(Cl)c(/C=C/CO)n1Cc1ccc(NC(=O)c2ccccc2NS(=O)(=O)C(F)(F)F)cc1 [Example 233, 3-[1-(4-((N-trifluoromethanesulfonyl)-anthranilamido)benzyl)-2-butyl-4-chloroimidazol-5-yl]-propen-1-ol, E isomer]
IC50 ([1]; Table 25): 600 nM
minimal effective dose at 10 mg/kg [2]: < 10 mg/kg
minimal effective dose at 100 mg/kg [2]: < 100 mg/kg

CCCCc1nc(Cl)c(CCC(=O)OC)n1Cc1ccc(NC(=O)c2ccccc2C(=O)O)cc1 [Example 234, 3-[2-Butyl-4-chloro-1-(4-(2-carboxybenzamido)benzyl)imidazol-5-yl]-propanoic acid methyl ester]
IC50 ([1]; Table 25): 64 nM
minimal effective dose at 10 mg/kg [2]: < 10 mg/kg
minimal effective dose at 100 mg/kg [2]: > 100 mg/kg

CCCCc1nc(Cl)c(CCC(=O)OC)n1Cc1ccc(NC(=O)c2ccccc2NS(=O)(=O)C(F)(F)F)cc1 [Example 235, 3-[2-Butyl-4-chloro-1-(4-((N-trifluoromethanesulfonyl)anthranilamido)benzyl)imidazol-5-yl]-propanoic acid methyl ester]
IC50 ([1]; Table 25): 160 nM
minimal effective dose at 10 mg/kg [2]: < 10 mg/kg
minimal effective dose at 100 mg/kg [2]: > 100 mg/kg

CCCCc1nc(Cl)c(CC(C)C(=O)OC(C)C)n1Cc1ccc(NC(=O)c2ccccc2NS(=O)(=O)C(F)(F)F)cc1 (centres unmarked) [Example 237, 3-[1-(4-((N-trifluoromethanesulfonyl)anthranilamido)benzyl)-2-butyl-4-chlorimidazol-5-yl]-2-methylpropanoic acid, isopropyl ester]
IC50 ([1]; Table 25): 120 nM
minimal effective dose at 10 mg/kg [2]: < 10 mg/kg
minimal effective dose at 100 mg/kg [2]: > 100 mg/kg

CCCCc1nc(Cl)c(C(=O)O)n1Cc1ccc(-c2ccccc2C(=O)O)cc1 [Example 240, 1-[(2'-Carboxybiphenyl-4-yl)methyl]-2-butyl-4-chloroimidazole-5-carboxylicacid]
IC50 ([1]; Table 25): 92 nM
minimal effective dose at 10 mg/kg [2]: < 10 mg/kg

CCCCc1nc(C(F)(F)F)c(C(=O)O)n1Cc1ccc(-c2ccccc2-c2nn[nH]n2)cc1 [Example 240A]
IC50 ([1]; Table 26): 150 nM
minimal effective dose at 3 mg/kg [2]: < 3 mg/kg
minimal effective dose at 30 mg/kg [2]: < 30 mg/kg

CCCCc1nc(Cl)c(/C=C/C(=O)OC)n1Cc1ccc(NC(=O)c2ccccc2C(=O)O)cc1 [Example 242]
IC50 ([1]; Table 25): 270 nM
minimal effective dose at 10 mg/kg [2]: < 10 mg/kg

CCCCc1nc(Cl)c(CCC(C)=O)n1Cc1ccc(NC(=O)c2ccccc2C(=O)O)cc1 [Example 244]
IC50 ([1]; Table 25): 88 nM
minimal effective dose at 10 mg/kg [2]: < 10 mg/kg

CCCCc1nc(Cl)c(CC(C)C(=O)OC(C)C)n1Cc1ccc(NC(=O)c2ccccc2C(=O)O)cc1 (centres unmarked) [Example 246]
IC50 ([1]; Table 25): 120 nM
minimal effective dose at 10 mg/kg [2]: < 10 mg/kg

CCCCc1nc(Cl)c(CCCOC(C)=O)n1Cc1ccc(NC(=O)c2ccccc2NS(=O)(=O)C(F)(F)F)cc1 [Example 248]
IC50 ([1]; Table 25): 250 nM
minimal effective dose at 10 mg/kg [2]: < 10 mg/kg

CCCCc1nc(Cl)c(CCC(=O)N2CCOCC2)n1Cc1ccc(NC(=O)c2ccccc2C(=O)O)cc1 [Example 249]
IC50 ([1]; Table 25): 72 nM
minimal effective dose at 10 mg/kg [2]: < 10 mg/kg
minimal effective dose at 100 mg/kg [2]: > 100 mg/kg

CCCCc1nc(Cl)c(CCC(=O)N2CCOCC2)n1Cc1ccc(NC(=O)c2ccccc2NS(=O)(=O)C(F)(F)F)cc1 [Example 250]
IC50 ([1]; Table 25): 120 nM
minimal effective dose at 10 mg/kg [2]: < 10 mg/kg
minimal effective dose at 100 mg/kg [2]: > 100 mg/kg

CCCc1nc(Cl)c(C(=O)O)n1Cc1ccc(-c2ccccc2-c2nn[nH]n2)cc1 [Example 251A]
IC50 ([1]; Table 26): 45 nM
minimal effective dose at 3 mg/kg [2]: < 3 mg/kg
minimal effective dose at 30 mg/kg [2]: < 30 mg/kg

CCCCc1nc(Cl)c(CCC(=O)O)n1Cc1ccc(-c2ccccc2C(=O)O)cc1 [Example 264]
IC50 ([1]; Table 25): 250 nM
minimal effective dose at 10 mg/kg [2]: < 10 mg/kg
minimal effective dose at 100 mg/kg [2]: < 100 mg/kg

CCCc1nc(C(F)(F)F)c(C(=O)O)n1Cc1ccc(-c2ccccc2-c2nn[nH]n2)cc1 [Example 265A]
IC50 ([1]; Table 26): 1100 nM
minimal effective dose at 3 mg/kg [2]: < 3 mg/kg
minimal effective dose at 30 mg/kg [2]: < 30 mg/kg

CCCCc1nc(C(F)(F)C(F)(F)F)c(C(=O)O)n1Cc1ccc(-c2ccccc2-c2nn[nH]n2)cc1 [Example 265B]
IC50 ([1]; Table 26): 1400 nM
minimal effective dose at 3 mg/kg [2]: < 3 mg/kg
minimal effective dose at 30 mg/kg [2]: < 30 mg/kg

CCCc1nc(C(F)(F)F)c(C(=O)O)n1Cc1ccc(-c2ccccc2C(=O)O)cc1 [Example 265D]
IC50 ([1]; Table 26): 1100 nM
minimal effective dose at 3 mg/kg [2]: < 3 mg/kg

CCCc1nc(C(F)(F)C(F)(F)F)c(C(=O)O)n1Cc1ccc(-c2ccccc2C(=O)O)cc1 [Example 265E]
IC50 ([1]; Table 26): 1600 nM
minimal effective dose at 3 mg/kg [2]: < 3 mg/kg

CCCCc1nc(Cl)c(CCCC(=O)O)n1Cc1ccc(-c2ccccc2C(=O)O)cc1 [Example 265]
IC50 ([1]; Table 25): 270 nM
minimal effective dose at 10 mg/kg [2]: < 10 mg/kg
minimal effective dose at 100 mg/kg [2]: < 100 mg/kg

CCC/C=C\c1nc(Cl)c(CO)n1Cc1ccc(-c2ccccc2C(=O)O)cc1 [Example 266, 1-[(2-Carboxybiphenyl-4-yl)-methyl]-4-chloro-5-hydroxymethyl-2-(cis-pent-1-en-1-yl)imidazole]
IC50 ([1]; Table 25): 2300 nM
minimal effective dose at 10 mg/kg [2]: < 10 mg/kg

CCCCc1nc(Cl)c(CCCF)n1Cc1ccc(-c2ccccc2C(=O)O)cc1 [Example 292]
IC50 ([1]; Table 25): 700 nM
minimal effective dose at 10 mg/kg [2]: < 10 mg/kg
minimal effective dose at 100 mg/kg [2]: < 100 mg/kg

CCCCc1nc(C(F)(F)F)c(C(=O)OCOC(=O)C(C)(C)C)n1Cc1ccc(-c2ccccc2-c2nn[nH]n2)cc1 [Example 314A]
IC50 ([1]; Table 26): 64 nM
minimal effective dose at 3 mg/kg [2]: < 3 mg/kg
minimal effective dose at 30 mg/kg [2]: < 30 mg/kg

CCCCc1nc(Cl)c(C=CCO)n1Cc1ccc(-c2ccccc2C(=O)O)cc1 [Example 314]
IC50 ([1]; Table 25): 630 nM
minimal effective dose at 10 mg/kg [2]: < 10 mg/kg
minimal effective dose at 100 mg/kg [2]: > 100 mg/kg

CCCCc1nc(Cl)c(C(O)c2ccccc2)n1Cc1ccc(-c2ccccc2-c2nn[nH]n2)cc1 (stereo not drawn) [Example 317A, α-[2-n-butyl-4-chloro-1-[(2'-(1H-tetrazol-5-yl)biphenyl-4-yl)methyl]imidazol-5-yl]-α-phenylmethanol]
IC50 ([1]; Table 26): 410 nM
minimal effective dose at 3 mg/kg [2]: < 3 mg/kg
minimal effective dose at 30 mg/kg [2]: > 30 mg/kg

CCCCc1nc(Cl)c(CO)n1Cc1ccc(-c2ccccc2C(=O)NS(=O)(=O)c2ccccc2C)cc1 [Example 319]
IC50 ([1]; Table 26): 91 nM
minimal effective dose at 3 mg/kg [2]: < 3 mg/kg
minimal effective dose at 30 mg/kg [2]: > 30 mg/kg

CCCc1nc(C)c(C=O)n1Cc1ccc(-c2ccccc2C(=O)O)cc1 [Example 320, 1-[(2'-Carboxybiphenyl-4-yl)methyl]-4-methyl-2-propylimidazole-5-carboxaldehyde]
IC50 ([1]; Table 26): 880 nM
minimal effective dose at 3 mg/kg [2]: < 3 mg/kg
minimal effective dose at 30 mg/kg [2]: < 30 mg/kg

CCCc1nc(C)c(CO)n1Cc1ccc(-c2ccccc2C(=O)O)cc1 [Example 321, 1-[(2'-Carboxybiphenyl-4-yl)methyl]-5-hydroxymethyl-4-methyl-2-propylimidazole.hydrochloride]
IC50 ([1]; Table 26): 1800 nM
minimal effective dose at 3 mg/kg [2]: < 3 mg/kg
minimal effective dose at 30 mg/kg [2]: > 30 mg/kg

CCCCc1nc(Cl)c(CO)n1-c1ccc(NC(=O)c2ccccc2NS(=O)(=O)C(F)(F)F)cc1 [Example 325, 2-n-Butyl-4-chloro-5-hydroxymethyl-1-[4-((N-trifluoromethanesulfonyl)-anthranilamido)phenyl]imidazole]
IC50 ([1]; Table 25): 730 nM
minimal effective dose at 10 mg/kg [2]: < 10 mg/kg

CCCCc1ncc(CO)n1-c1ccc(NC(=O)c2ccccc2NS(=O)(=O)C(F)(F)F)cc1 [Example 326, 2-n-butyl-5-hydroxymethyl-1-[4-((N-trifluoromethanesulfonyl)anthranilamido)phenyl]imidazole]
IC50 ([1]; Table 25): 790 nM
minimal effective dose at 10 mg/kg [2]: < 10 mg/kg

Source: patent US5138069A (E. I. Du Pont de Nemours and Company, priority 1988, dated 1992)
